Results published in patent US6605606B1, “Solid forms of tin ethyl etiopurpurin and processes for producing such forms” (Miravant Pharmaceuticals, Inc., priority 2000, dated 2003).

Assays:
[1] = Light stability of SnET2 solid forms under visible light irradiation (XRPD and HPLC); type: physicochemical; conditions: for XRPD Result / Impurity Levels by HPLC Peak 1 (photooxidized product) / Impurity Levels by HPLC Peak 2 / Impurity Levels by HPLC Peak 3: solid
Experimental: Comparative stability studies were performed on crystalline Form I, crystalline Form II, disordered Form II and the amorphous form. Light stability studies were carried out in a closed, black 30×16×12 inch cabinet containing two 24-inch, 20-watt fluorescent bulbs as the light source. The samples were placed approximately 10 inches from the bulbs. Each sample consisted of approximately 30-mg of SnET2 in a 1-dram vial. Samples were removed at the time intervals indicated in Table 11, analyzed by XRPD and HPLC.

[2] = Relative thermodynamic stability of crystalline forms (slurry interconversion, XRPD); type: physicochemical; conditions: slurrying in dichloromethane, acetone and mixtures, ambient or 50° C.
From the text: Unsolvated, anhydrous, polymorphic forms of a compound differ in their free energies. A set of polymorphs may be ranked in order of thermodynamic stability under a given set of pressure and temperature conditions. […] Production of the stable form is said to occur under thermodynamic conditions. […] Phys. Chem. 22:306 (1897)]. […] Kinetic and thermodynamic conditions differ in the amount of energy utilized. While the absolute amount depends on the compound in question, relatively speaking, kinetic conditions involve lower temperatures and shorter reaction times while thermodynamic conditions involve higher temperatures and longer reaction times.
Under subdued lighting, a slurry containing a 1:1 mixture of SnET2 crystalline Form I and SnET2 crystalline Form II (100-200 mg each) in 1-3 mL of a solvent, listed in Table 13 below, was agitated in a tightly-capped tube at ambient temperature or at 50° C. The undissolved solid was collected by filtration and found, by XRPD analysis, to be crystalline Form II.

[3] = visible light (two 20-watt fluorescent bulbs, approx. 10 inches), 0 days
[4] = visible light irradiation, 0 days
[5] = visible light irradiation, 2 days
[6] = visible light irradiation, 4 days
[7] = visible light irradiation, 6 days
[8] = visible light irradiation, 8 days
[9] = visible light irradiation, 19 days
[10] = visible light irradiation, 29 days

Substance	XRPD Result [1, 3]	Impurity Levels by HPLC Peak 1 (photooxidized product) [1, 4]	Impurity Levels by HPLC Peak 2 [1, 4]	Impurity Levels by HPLC Peak 3 [1, 4]	Impurity Levels by HPLC Peak 1 (photooxidized product) [1, 5]	Impurity Levels by HPLC Peak 2 [1, 5]	Impurity Levels by HPLC Peak 3 [1, 5]	XRPD Result [1, 5]	Impurity Levels by HPLC Peak 1 (photooxidized product) [1, 6]	Impurity Levels by HPLC Peak 2 [1, 6]	Impurity Levels by HPLC Peak 3 [1, 6]	XRPD Result [1, 6]	Impurity Levels by HPLC Peak 1 (photooxidized product) [1, 7]	Impurity Levels by HPLC Peak 2 [1, 7]	Impurity Levels by HPLC Peak 3 [1, 7]	XRPD Result [1, 7]	Impurity Levels by HPLC Peak 1 (photooxidized product) [1, 8]	Impurity Levels by HPLC Peak 2 [1, 8]	Impurity Levels by HPLC Peak 3 [1, 8]	XRPD Result [1, 8]	further results
Tin ethyl etiopurpurin [Amorphous]	Amorphous	1.62	0.70	0.00	6.60	0.71	0.03	Amorphous	9.78	0.73	0.15	Amorphous	1.84	0.11	0.23	Amorphous	12.66	0.70	0.27	Amorphous	rate of photoproduct formation by HPLC ([1]; exposed to visible light, compared with the other solid forms): produced more rapidly in the amorphous form than any other form; Impurity Levels by HPLC Peak 1 (photooxidized product) [1, 9]: 14.13; Impurity Levels by HPLC Peak 2 [1, 9]: 0.73; Impurity Levels by HPLC Peak 3 [1, 9]: 0.38; XRPD Result [1, 9]: Amorphous; Impurity Levels by HPLC Peak 1 (photooxidized product) [1, 10]: 18.72; Impurity Levels by HPLC Peak 2 [1, 10]: 0.76; Impurity Levels by HPLC Peak 3 [1, 10]: 0.38; XRPD Result [1, 10]: Amorphous
Tin ethyl etiopurpurin [Crystalline Form II]	Crystalline	0.00	0.23	0.00	0.44	0.23	0.04	Crystalline	0.56	0.24	0.09	Crystalline	0.82	0.21	0.10	Crystaliine	0.96	0.21	0.15	Crystalline	relative (thermodynamic) stability of crystalline forms [2]: thermodynamically more stable form; relative (thermodynamic) stability of crystalline forms ([2]; listed as crystalline Form II): more stable than crystalline Form I; Impurity Levels by HPLC Peak 1 (photooxidized product) [1, 9]: 1.12; Impurity Levels by HPLC Peak 2 [1, 9]: 0.18; Impurity Levels by HPLC Peak 3 [1, 9]: 0.14; XRPD Result [1, 9]: Crystalline; Impurity Levels by HPLC Peak 1 (photooxidized product) [1, 10]: 1.68; Impurity Levels by HPLC Peak 2 [1, 10]: 0.17; Impurity Levels by HPLC Peak 3 [1, 10]: 0.11; XRPD Result [1, 10]: Crystalline
Tin ethyl etiopurpurin [Crystalline Form I]	Crystalline	0.20	0.15	0.0	0.89	0.16	0.0	Crystalline	9.61	0.84	0.0	Crystalline	2.16	0.14	0.09	Crystalline	1.87	0.15	0.13	Crystalline	Impurity Levels by HPLC Peak 1 (photooxidized product) [1, 9]: 2.39; Impurity Levels by HPLC Peak 2 [1, 9]: 0.34; Impurity Levels by HPLC Peak 3 [1, 9]: 0.17; XRPD Result [1, 9]: Crystalline; Impurity Levels by HPLC Peak 1 (photooxidized product) [1, 10]: 4.47; Impurity Levels by HPLC Peak 2 [1, 10]: 0.11; Impurity Levels by HPLC Peak 3 [1, 10]: 0.21; XRPD Result [1, 10]: Crystalline
Tin ethyl etiopurpurin [Disordered Form II]	Disordered FII	0.65	0.10	0.19	1.24	0.13	0.19	Disordered FII	1.98	0.09	0.27	Disordered FII	2.51	0.11	0.28	Disordered FII	1.77	0.12	0.28	Disordered FII	Impurity Levels by HPLC Peak 1 (photooxidized product) [1, 9]: 3.54; Impurity Levels by HPLC Peak 2 [1, 9]: 0.06; Impurity Levels by HPLC Peak 3 [1, 9]: 0.32; XRPD Result [1, 9]: Disordered FII; Impurity Levels by HPLC Peak 1 (photooxidized product) [1, 10]: 4.92; Impurity Levels by HPLC Peak 2 [1, 10]: 0.10; Impurity Levels by HPLC Peak 3 [1, 10]: 0.51; XRPD Result [1, 10]: Disordered FII
